Where two headings read alike, the source gives them in different places. Where a SMILES comes first, the peptide text is derived from it. Bridges are numbered along the chain shown (N, C = ends). [ ]: non-standard residue; d: D form. The star is where a group is joined. Octatrienoyl(2E,4E,6E) = C/C=C/C=C/C=C/C(=O)*; NMeA = CN[C@@H](C)C(=O)O
Tests used:
[1] = system: P. falciparum 3D7 parasites; test: P. falciparum growth inhibition assay, 1-cycle (72 h treatment), SYBR DNA staining (library screen at 2 μg/mL and dose-response); assay type: cell-based, Plasmodium falciparum; settings: for activity at 2 µg/mL: Plasmodium falciparum, 3D7, parasite screen 2 μg/mL
[2] = system: T. gondii RH strain (RH-Tub-eYFP) tachyzoites; test: microbe, parasite or virus in culture; assay type: cell-based, Toxoplasma gondii; settings: for percent parasite growth at 2 µg/mL: Toxoplasma gondii
[3] = system: P. falciparum 3D7 parasites; test: P. falciparum growth inhibition assay, 2-cycle (120 h treatment), delayed-death screen and dose-response; assay type: cell-based, Plasmodium falciparum; settings: for activity at 2 µg/mL: Plasmodium falciparum, 3D7, parasite screen 2 μg/mL
[4] = P. falciparum, 72 h, screen at 2 μg/mL, replicate 1
[5] = P. falciparum, 72 h, screen at 2 μg/mL, replicate 2
[6] = T. gondii, 72 h, screen at 2 μg/mL, replicate 1
[7] = T. gondii, 72 h, screen at 2 μg/mL, replicate 2
[8] = P. falciparum, 120 h, screen at 2 μg/mL, replicate 1
[9] = P. falciparum, 120 h, screen at 2 μg/mL, replicate 2
[10] = 2 μg/mL, 72 h, active = ≥80 % growth inhibition
[11] = library screen at 2 μg/mL, 72 h, % growth, replicate 1
[12] = library screen at 2 μg/mL, 72 h, % growth, replicate 2
[13] = library screen at 2 μg/mL, 120 h, % growth, replicate 1
[14] = library screen at 2 μg/mL, 120 h, % growth, replicate 2

Row | Compound | Pf_72h_%Growth_Rep1 [1, 4] | Pf_72h_%Growth_Rep2 [1, 5] | Tg_72h_%Growth_Rep1 [2, 6] | Tg_72h_%Growth_Rep2 [2, 7] | Pf_120h_%Growth_Rep1 [3, 8] | Pf_120h_%Growth_Rep2 [3, 9] | further results
1 | CC(=O)O[C@H]1CC[C@]2(C)[C@H]3CC[C@]4(C)Oc5oc(C)cc(=O)c5C[C@H]4[C@]3(C)CC[C@H]2C1(C)C [Chevalone C] | 92.41% | 79.15% | 84.01% | 91.63% | 145.74% | 96.88% | 
2 | CC(=O)N[C@H]1[C@H](O[C@@H]2c3ccc(c(Cl)c3)Oc3cc4cc(c3O[C@@H]3O[C@H](CO)[C@@H](O)[C@H](O)[C@H]3NC(=O)CCCCCCCC(C)C)Oc3ccc(cc3Cl)C[C@H]3NC(=O)[C@H](N)c5ccc(O)c(c5)Oc5cc(O)cc(c5)[C@H](NC3=O)C(=O)N[C@H]4C(=O)N[C@H]3C(=O)N[C@@H]2C(=O)N[C@H](C(=O)O)c2cc(O)cc(O[C@H]4O[C@H](CO)[C@@H](O)[C@H](O)[C@@H]4O)c2-c2cc3ccc2O)O[C@H](CO)[C@@H](O)[C@@H]1O [Teicoplanin A2-5] | 86.27% | 115.48% | 105.42% | 91.45% | 86.61% | 122.81% | 
3 | CC(=O)O[C@H]1CC[C@]2(C)[C@H]3CC[C@]4(C)Oc5cc(C)oc(=O)c5C[C@H]4[C@]3(C)CC[C@H]2C1(C)C [Chevalone B] | 12.18% | 38.64% | 78.55% | 94.84% | 13.73% | 21.31% | 1) Growth (%) at 72 h ([1]; P. falciparum, 2 μg/mL, 72 h): 25.41%; Mean ([1]; P. falciparum, 72 h, 2 μg/mL, mean of both replicates, growth (% of control)): 25.41; 2) Growth (%) at 120 h ([3]; P. falciparum, 2 μg/mL, 120 h): 17.52%; 3) Fold change (72 h/120 h) ([3]; P. falciparum, growth at 72 h / growth at 120 h, 2 μg/mL): 1.5
4 | COc1ccc2c3c(c4cc(OC)c(OC)cc4c2c1)C[C@H]1CCCCN1C3 [Cryptopleurine] | 8.09% | -1.65% | 6.11% | 2.53% | 9.09% | 3.06% | activity in the screen against P. falciparum [1, 10]: activity against both parasites; IC50 ([1]; 3D7, 72 h treatment, mean ± S.D., n ≥ 3, read-out: IC50 (μM), P. falciparum): 0.008 ± 0.003 µM; Screen (P. falciparum) ([1]; library screen at 2 μg/mL, 3D7, 72 h, DD from the 120 h timepoint): A, A; activity in the screen against T. gondii [2, 10]: activity against both parasites; IC50 ([2]; RH strain, 72 h, mean ± S.D., n ≥ 3, read-out: IC50 (μM), T. gondii (converted)): 0.011 µM; Screen (T. gondii) ([2]; library screen at 2 μg/mL, RH strain, 72 h): A, A
5 | C/C=C/C=C/C=C/C(=O)N[C@H]1CCCNC(=O)[C@H](C)N(C)C(=O)[C@H](C(C)C)N(C)C1=O [Aspochracin] |  |  |  |  |  |  | Pf_72h_%Growth_Rep1 [1, 11]: 109.60%; Pf_72h_%Growth_Rep2 [1, 12]: 89.28%; Tg_72h_%Growth_Rep1 [2, 11]: 82.68%; Tg_72h_%Growth_Rep2 [2, 12]: 94.06%; Pf_120h_%Growth_Rep1 [3, 13]: 147.75%; Pf_120h_%Growth_Rep2 [3, 14]: 101.25%
6 | CC(C)[C@@H]1NC(=O)[C@@H]2CCCN2C1=O [Cyclo(L-Pro-L-Val)] | 85.07% | 82.22% | 147.92% | 100.59% | 101.90% | 92.75% | 
7 | COc1cc2c(c3oc(=O)c4c(c13)CCOC4=O)C1C=COC1O2 (centres unmarked) [Aflatoxin G1] |  |  |  |  |  |  | Pf_72h_%Growth_Rep1 [1]: 72.54%; Pf_72h_%Growth_Rep2 [1]: 87.39%; Tg_72h_%Growth_Rep1 [2]: 81.49%; Tg_72h_%Growth_Rep2 [2]: 92.08%; Pf_120h_%Growth_Rep1 [3]: 145.89%; Pf_120h_%Growth_Rep2 [3]: 92.80%
8 | CO[C@H]1C[C@H](O[C@@H]2/C(C)=C/C[C@@H]3C[C@@H](C[C@]4(CC[C@H](C)[C@@H](C5CCCCC5)O4)O3)OC(=O)[C@@H]3C=C(C)/C(=N/O)[C@H]4OC/C(=C\C=C\[C@@H]2C)[C@]43O)O[C@@H](C)[C@@H]1O [selamectin, reference compound] |  |  |  |  |  |  | selectivity for P. falciparum in the screens [1]: selective for P. falciparum; activity at 2 µg/mL ([1]; P. falciparum, 72 h, % growth, replicate 1, read-out: Pf_72h_%Growth_Rep1): 3.56%; activity at 2 µg/mL ([1]; P. falciparum, 72 h, % growth, replicate 2, read-out: Pf_72h_%Growth_Rep2): 6.13%; percent parasite growth at 2 µg/mL ([2]; 72 h, read-out: Tg_72h_%Growth_Rep1): 116%; percent parasite growth at 2 µg/mL ([2]; 72 h, read-out: Tg_72h_%Growth_Rep2): 78.2%; activity at 2 µg/mL ([3]; P. falciparum, 120 h, % growth, replicate 1, read-out: Pf_120h_%Growth_Rep1): 2.99%; activity at 2 µg/mL ([3]; P. falciparum, 120 h, % growth, replicate 2, read-out: Pf_120h_%Growth_Rep2): 8.34%
9 | Capreomycin sulfate | 82.18% | 86.69% | 114.86% | 91.40% | 94.57% | 87.91% | 
10 | C/C=C/C=C/C=C/C(=O)N[C@@H](Cc1ccccc1)C(=O)N[C@H]1COC(=O)[C@@H]2CCCN2C(=O)[C@H](C)NC(=O)[C@H](C)N(C)C(=O)[C@@H]2CCCN2C1=O [A 54556B] ({Octatrienoyl(2E,4E,6E)}-FSP[NMeA]AP; ester 2-C) |  |  |  |  |  |  | Pf_72h_%Growth_Rep1 [1, 11]: 78.68%; Pf_72h_%Growth_Rep2 [1, 12]: 74.34%; Tg_72h_%Growth_Rep1 [2, 11]: 115.90%; Tg_72h_%Growth_Rep2 [2, 12]: 86.45%; Pf_120h_%Growth_Rep1 [3, 13]: 65.42%; Pf_120h_%Growth_Rep2 [3, 14]: 57.54%
